According to US5631246A, “Use of PAF” (The Canadian Red Cross Society, priority 1993, dated 1997):

Experiments:
ECs = conditions: stimulation with PAF; D'Humieres et al. (1986); cited from earlier work
endothelial cells (ECs) = experiment: vWf release from ECs exposed directly to PAF or thrombin; conditions: for Increase in vWf release (%), BTP-dioxolane absent: 4 hours
Method: Synthetic PAF (1-O-alkyl-2-acetyl-sn-glyceryl-3-phosphorylcholine; Sigma #P-9525) prepared from bovine heart lecithin (Demopoulos et al. (1979) J. Biol. Chem. 254: 9355-358) was 99% pure by TLC analysis, HPLC analysis indicated this product consisted of 70% C16 and 13% C18 forms of PAF (Mita et al., (1989) Anal. Biochem. 180:131-135). After removal of chloroform, PAF was resuspended in DMEM/F12 culture medium containing 1% Nutridoma-HU (final protein concentration of 40 μM stock solution). After sonication for 3×1 minute periods, the PAF solution was diluted and used immediately.
Media with or without thrombin (@5 units/mL) served as positive and negative controls respectively. ECs were incubated for 1, 10, 20 or 30 minutes and 1, 2, 4, 6 and 24 hours in the PAF and thrombin time course studies. The EC conditioned media were recovered, centrifuged to remove any cell debris, and then frozen at -80° C. for a maximum period of 4 weeks prior to analyses. […] Where appropriate ECs were preincubated with BTP-dioxolane which was not cytotoxic to the cells as determined by the dye exclusion test.
Endothelial cells (ECs) were harvested from human umbilical cord vein as described by Jaffe et al. ((1973) Culture of Human Endothelial Cells Derived from Umbilical Veins: Identification by Morphologic and Immunologic Criteria, J. Clin. Invest. 52:2745-2756) and modified by Hashemi et al. (1990, supra). Endothelial cells were subcultured in 0.2% (w/v) gelatin-coated, 12-well Linbro™ polystyrene, tissue culture plates (Flow Laboratories, Mississauga, Ontario), then plated at a density of 1-2×10^4 /well and grown to confluence.
The standard consisted of a pool of plasma from 20 normal individuals previously determined to contain 1 unit of vWf per mL by the procedure of Zimmerman et al. (1977, J. Clin. Invest. 59:984-989). […] For some experiments, the maximum vWf that could be released was determined. Following incubation, the EC conditioned media were recovered and fresh media containing 0.05% (v/v) Tween 20 and 10 μM each of the protease inhibitors D-phenylalanyl-phenylalanyl-arginyl-chloromethyl ketone, D-phenylalanyl-propyl-arginyl-chloromethyl ketone and 1,5-Dansyl-glutamyl-glycyl-arginyl-chloromethyl ketone were added to the EC monolayers of each corresponding well. The cells were freeze-thawed three times and, to assure complete breakdown of the cell membranes as well as the Weibel-Palade bodies, disrupted in a glass homogenizer using a motor-driven teflon pestle. After centrifugation, total vWf concentration was determined in the supernatants.
In order to examine the responsiveness of ECs to direct PAF exposure, we incubated the monolayers of ECs with 0-300 pico molar (pM) PAF for a period of 4 hours at 37° C. and determined the amount of vWf released into the EC media. […] To determine the time course of PAF effects on vWf release, 300 pM PAF was incubated with monolayers of ECs for 1, 10, 20 and 30 minutes as well as for 1, 2, 4, 6 and 24 hours. […] As a control, the vWf release from thrombin stimulated ECs was also determined (FIG. 5).

[1] = Stability of PAF in stored monocyte conditioned media; format: physicochemical; conditions: -80° C., various periods of time; within experimental error
Text: In addition, PAF was extracted from the monocyte supernatants and assayed using the following highly specific and sensitive radioimmunoassay. As the most predominant bioactive forms of PAF secreted by monocytes are the C16 and C18 alkyl moieties (Sugiura and Waku, (1987) Platelet-Activating Factor and Related Lipid Mediators, F. Snyder Ed. Plenum Press, N.Y. 55-85; Prescott et al. (1990) Proc. Natl. Acad. Sci. U.S.A. 81:3534-3538), PAF was quantitated using the highly specific and sensitive ^125 I-RIA kit manufactured by NEN Research Products (Du Pont Canada, Mississauga, Ontario, Canada) following extraction of the monocyte supernatants with 5 mL each of methanol and chloroform and 3.5 mL of water per mL of sample. The recovered chloroform layers, dried under nitrogen, were reconstituted in the PAF assay kit buffer prior to analysis. […] Recoveries of PAF (90±1%, n=>130) were assessed by adding trace amounts of ^3 H-PAF to the sample prior to extraction and determining the % recoveries using a liquid scintillation counter (Model-7000, Beckman Instruments Canada). Iodinated samples were counted on a Beckman Gamma 5500 counter (Beckman Instruments, Fullerton, Calif.). […]

1-O-alkyl-2-acetyl-sn-glyceryl-3-phosphorylcholine [PAF]
PGI2 release from ECs (ECs): release PGI2 in response to stimulation | vWf release from ECs (maximal) (endothelial cells (ECs); 300 pM PAF, 30 minutes, P<0.05, n=5): 151% | vWf release as share of the maximal vWf recoverable (endothelial cells (ECs); 300 pM PAF, 30 minutes, […]): ~ 4% | time course of vWf release from ECs (endothelial cells (ECs); 300 pM PAF, FIG. 5): released vWf at all time points up to 24 hours | PAF concentration range of greatest vWf release response (endothelial cells (ECs); FIG. 4, 4 hours at 37° C., n=5): 100 to 300 pM | Increase in vWf release (%), BTP-dioxolane absent (endothelial cells (ECs); PAF 100 pM, n=5): 190.8 ± 46.6% | Increase in vWf release (%), BTP-dioxolane absent (endothelial cells (ECs); PAF 300 pM, n=5): 204.2 ± 48.7% | PAF values in monocyte conditioned media after storage [1]: gave the same values
